Measurements taken from US10219516B2, “Molecules having pesticidal utility, and intermediates, compositions, and processes, related thereto” (priority 2015, dated 2019).
Like-named read-outs stand apart in the source and are kept apart here.

Columns and labels:
Assay type in all cases: in vivo
[1] = system: Cabbage Looper (Trichoplusia ni, TRIPNI); assay: Bioassay on Cabbage Looper (CL), 128-well diet tray assay; details: Trichoplusia ni
Outline: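 Mortality of second instar larvae exposed to diet coated with 50 μg/cm^2 compound (acetone-water 90:10 vehicle, dried); 25° C., 5–7 days.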

[2] = system: Yellow Fever Mosquito (Aedes aegypti, AEDSAE); assay: Bioassay on Yellow Fever Mosquito (YFM), 96-well plate larval assay; details: for YFM rating: Yellow Fever Mosquito, 96-well plate larval assay; for YFM (Biological Results, rating): Species YFM (Yellow Fever Mosquito)
Outline: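 Each well was scored for mortality after 3 days at room temperature under a non-evaporative lid. Test molecules came from DMSO masters (4000 ppm stock) diluted with water/acetone 90:10 and dispensed into six replicate plates, which were then infested with roughly 1-day-old larvae in liver-powder water.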

[3] = system: Beet Armyworm (Spodoptera exigua, LAPHEG); assay: Bioassay on Beet Armyworm (BAW), 128-well diet tray assay
Outline: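 Diet tray, 8 wells/compound; 50 μg/cm^2 applied to diet surface (90:10 acetone-water), dried. 1–5 L2 larvae/well; 25° C., 14:10 L:D, 5–7 d. Read-out: % mortality, mean of 8 wells.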

[4] = Cabbage Looper, 128-well diet tray assay, read-out: CL rating
[5] = Beet Armyworm, 128-well diet tray assay, read-out: BAW rating
[6] = Species CL (Cabbage Looper), read-out: CL (Biological Results, rating)
[7] = Species BAW (Beet Armyworm), read-out: BAW (Biological Results, rating)

| Compound | pest or weed control at 50 µg/cm2 [1, 4] [%] | YFM rating [2] | pest or weed control at 50 µg/cm2 [3, 5] [%] | pest or weed control at 50 µg/cm2 [1, 6] [%] | YFM (Biological Results, rating) [2] | pest or weed control at 50 µg/cm2 [3, 7] [%] |
| --- | --- | --- | --- | --- | --- | --- |
| O=C(Nc1ccc(F)cc1F)c1cc(NC(=O)[C@H]2[C@H](c3ccc(F)c(Br)c3)C2(Cl)Cl)ccc1Cl (relative stereo) [F375, 5-(trans)-(3-(3-Bromo-4-fluorophenyl)-2,2-dichlorocyclopropane-1-carboxamido)-2-chloro-N-(2,4-difluorophenyl)benzamide] | 50 to 100 | A (80-100) | 50 to 100 | – | – | – |
| C=Cc1cc(Cl)cc([C@H]2[C@H](C(=O)Nc3ccc(Cl)c(C(=O)Nc4ccc(F)cc4F)c3)C2(Cl)Cl)c1 (relative stereo) [F352, 2-Chloro-5-(trans-2,2-dichloro-3-(3-chloro-5-vinylphenyl)cyclopropane-1-carboxamido)-N-(2,4-difluorophenyl)benzamide] | – | – | – | 50 to 100 | A (80-100) | 50 to 100 |
| O=C(Nc1cncc(NO)c1)c1cc(NC(=O)[C@H]2[C@H](c3ccc(Cl)c(Cl)c3)C2(Cl)Cl)ccc1Cl [F526, 2-Chloro-5-((1R,3R)-2,2-dichloro-3-(3,4-dichlorophenyl)cyclopropane-1-carboxamido)-N-(5-(hydroxyamino)pyridin-3-yl)benzamide] | 50 to 100 | A (80-100) | 50 to 100 | – | – | – |
| O=C(Nc1ccc(F)cc1F)c1cc(NC(=O)[C@H]2[C@H](c3cccc(C(F)F)c3)C2(Cl)Cl)ccc1Cl (relative stereo) [F564, 2-Chloro-5-(trans-2,2-dichloro-3-(3-(difluoromethyl)phenyl)cyclopropane-1-carboxamido)-N-(2,4-difluorophenyl)benzamide] | 50 to 100 | A (80-100) | 50 to 100 | – | – | – |
| O=C(Nc1ccc(I)cc1)c1cc(NC(=O)[C@H]2[C@H](c3cc(Cl)cc(Cl)c3)C2(Cl)Cl)ccc1Cl (relative stereo) [F193, trans-2-Chloro-5-(2,2-dichloro-3-(3,5-dichlorophenyl)cyclopropane-1-carboxamido)-N-(4-iodophenyl)benzamide] | – | – | – | 50 to 100 | B (More than 0-Less than 80) | 50 to 100 |
| CC1(c2cc(Cl)cc(Cl)c2)C(C(=O)Nc2ccc(Cl)c(C(=O)Nc3ccc(F)cc3)c2)C1(Cl)Cl (stereo not drawn) [F251, 2-Chloro-5-trans-(2,2-dichloro-3-(3,5-dichlorophenyl)-3-methylcyclopropane-1-carboxamido)-N-(4-fluorophenyl)benzamide] | – | – | – | 50 to 100 | A (80-100) | 50 to 100 |
| COc1c(Cl)cc([C@H]2[C@H](C(=O)Nc3ccc(Cl)c(C(=O)Nc4ccccc4)c3)C2(Cl)Cl)cc1Cl (relative stereo) [F179, trans-2-chloro-5-(2,2-dichloro-3-(3,5-dichloro-4-methoxyphenyl)cyclopropane-1-carboxamido)-N-phenylbenzamide] | – | – | – | 50 to 100 | B (More than 0-Less than 80) | 50 to 100 |
| O=C(Nc1c(F)cccc1F)c1cc(NC(=O)[C@H]2[C@H](c3ccc(F)c(Cl)c3)C2(Cl)Cl)ccc1Cl (relative stereo) [F161, trans-2-Chloro-5-(2,2-dichloro-3-(3-chloro-4-fluorophenyl)cyclopropane-1-carboxamido)-N-(2,6-difluorophenyl)benzamide] | – | – | – | 50 to 100 | A (80-100) | 50 to 100 |
| Cc1cc(N)ccc1NC(=O)c1cc(NC(=O)[C@H]2[C@H](c3ccc(F)c(Cl)c3)C2(Cl)Cl)ccc1Cl (relative stereo) [F228, trans-N-(4-Amino-2-methylphenyl)-2-chloro-5-(2,2-dichloro-3-(3-chloro-4-fluorophenyl)cyclopropane-1-carboxamido)benzamide] | – | – | – | 50 to 100 | A (80-100) | 50 to 100 |
| CN1CCCc2cc(NC(=O)c3cc(NC(=O)[C@H]4[C@H](c5cc(Cl)cc(Cl)c5)C4(Cl)Cl)ccc3Cl)ccc21 (relative stereo) [F491, 2-Chloro-5-(trans)-(2,2-dichloro-3-(3,5-dichlorophenyl)cyclopropane-1-carboxamido)-N-(1-methyl-1,2,3,4-tetrahydroquinolin-6-yl)benzamide] | 50 to 100 | A (80-100) | 50 to 100 | – | – | – |
| O=C(Nc1ccc(S(=O)(=O)CC(F)(F)F)cc1)c1cc(NC(=O)[C@H]2[C@H](c3cc(Cl)cc(Cl)c3)C2(Cl)Cl)ccc1Cl (relative stereo) [PF17, trans-2-chloro-5-(2,2-dichloro-3-(3,5-dichlorophenyl)cyclopropane-1-carboxamido)-N-(4-((2,2,2-trifluoroethyl)sulfonyl)phenyl)benzamide] | 50 to 100 | B (More than 0-Less than 80) | 50 to 100 | – | – | – |
| Nc1c(F)ccc(NC(=O)c2cc(NC(=O)[C@H]3[C@H](c4ccc(Br)c(Cl)c4)C3(Cl)Cl)ccc2Cl)c1F (relative stereo) [F325, N-(3-Amino-2,4-difluorophenyl)-5-(trans-3-(4-bromo-3-chlorophenyl)-2,2-dichlorocyclopropane-1-carboxamido)-2-chlorobenzamide] | – | – | – | 50 to 100 | A (80-100) | 50 to 100 |
| Cn1ccc2cc(NC(=O)c3cc(NC(=O)C4C(c5cc(Cl)cc(Cl)c5)C4(Cl)Cl)ccc3Cl)ccc21 (stereo not drawn) [F457, 2-Chloro-5-(trans)-2,2-dichloro-3-(3,5-dichlorophenyl)cyclopropane-1-carboxamido)-N-(1-methyl-1H-indol-5-yl)benzamide] | 50 to 100 | A (80-100) | 50 to 100 | – | – | – |
| O=C(Nc1ccccc1)c1cc(NC(=O)[C@H]2[C@H](c3ccc(F)c(Cl)c3)C2(Cl)Cl)ccc1Cl (relative stereo) [F259, trans-2-Chloro-5-(2,2-dichloro-3-(3-chloro-4-fluorophenyl)cyclopropane-1-carboxamido)-N-phenylbenzamide] | – | – | – | 50 to 100 | A (80-100) | 50 to 100 |
| O=C(Nc1ccc(Cl)c(C(=O)N(CC(F)(F)F)c2ccc(F)cc2)c1)[C@H]1[C@H](c2cc(Cl)cc(Cl)c2)C1(Cl)Cl (relative stereo) [F100, trans-2-Chloro-5-(2,2-dichloro-3-(3,5-dichlorophenyl)cyclopropane-1-carboxamido)-N-(4-fluorophenyl)-N-(2,2,2-trifluoroethyl)benzamide] | – | – | – | 50 to 100 | A (80-100) | 50 to 100 |
| O=C(NC1CCc2ncccc2C1)c1cc(NC(=O)C2C(c3cc(Cl)cc(Cl)c3)C2(Cl)Cl)ccc1Cl (stereo not drawn) [F567, 2-Chloro-5-trans-(2,2-dichloro-3-(3,5-dichlorophenyl)cyclopropane-1-carboxamido)-N-(5,6,7,8-tetrahydroquinolin-6-yl)benzamide] | 50 to 100 | A (80-100) | 50 to 100 | – | – | – |
| COc1cc([C@H]2[C@H](C(=O)Nc3ccc(Cl)c(C(=O)Nc4ccc(F)cc4F)c3)C2(Cl)Cl)cc(F)c1Br (relative stereo) [F542, 5-(trans-3-(4-Bromo-3-fluoro-5-methoxyphenyl)-2,2-dichlorocyclopropane-1-carboxamido)-2-chloro-N-(2,4-difluorophenyl)benzamide] | 50 to 100 | A (80-100) | 50 to 100 | – | – | – |
| Cc1nc2cc(NC(=O)c3cc(NC(=O)C4C(c5cc(Cl)cc(Cl)c5)C4(Cl)Cl)ccc3Cl)ccc2s1 (stereo not drawn) [F455, 2-Chloro-5-(trans)-2,2-dichloro-3-(3,5-dichlorophenyl)cyclopropane-1-carboxamido)-N-(2-methylbenzo[d]thiazol-5-yl)benzamide] | 50 to 100 | A (80-100) | 50 to 100 | – | – | – |
| CCOC(=O)c1cc2cc(NC(=O)c3cc(NC(=O)[C@H]4[C@H](c5cc(Cl)cc(Cl)c5)C4(Cl)Cl)ccc3Cl)ccc2[nH]1 (relative stereo) [F483, Ethyl 5-(2-chloro-5-(trans)(2,2-dichloro-3-(3,5-dichlorophenyl)cyclopropane-1-carboxamido)benzamido)-1H-indole-2-carboxylate] | 50 to 100 | A (80-100) | 50 to 100 | – | – | – |
| CN(C(=O)CC(F)(F)F)c1ccc(NC(=O)c2cc(NC(=O)[C@H]3[C@H](c4cc(Cl)cc(Cl)c4)C3(Cl)Cl)ccc2Cl)cc1 (relative stereo) [PF30, trans-2-Chloro-5-(2,2-dichloro-3-(3,5-dichlorophenyl)cyclopropane-1-carboxamido)-N-(4-(3,3,3-trifluoro-N-methylpropanamido)phenyl)benzamide] | 50 to 100 | B (More than 0-Less than 80) | 50 to 100 | – | – | – |
| CC(=O)c1cc(F)ccc1NC(=O)c1cc(NC(=O)[C@H]2[C@H](c3cc(Cl)cc(Cl)c3)C2(Cl)Cl)ccc1Cl (relative stereo) [PF77, trans-N-(2-acetyl-4-fluorophenyl)-2-chloro-5-(2,2-dichloro-3-(3,5-dichlorophenyl)cyclopropane-1-carboxamido)benzamide] | 50 to 100 | A (80-100) | 50 to 100 | – | – | – |
